Experimental data as given in US20210171948A1, “COMPOSITIONS AND METHODS FOR TARGETING GLYPICAN-2 IN THE TREATMENT OF CANCER” (Shepherd Therapeutics, Inc., priority 2019, published 2021).
d = 2'-deoxy (DNA); r = 2'-OH (RNA)

Assays:
Assay type in all cases: cell-based
[1] = system: CHP212, SKNAS and SHSY5Y neuroblastoma cell lines; test: Cell viability after siRNA transfection, 96 hour (Example 4, FIG. 3B); conditions: 96 hour incubation (FIG. 3B)
Procedure: GPC2 mRNA knockdown was assessed in multiple neuroblastoma cell lines. Cells were transfected with either a scrambled control siRNA, with GPC2 siRNA sequences 3 or 5 from Table 7, or with siRNA sequences generated by Dharmacon (sequences 12-15 from Table 7) using the RNAiMAX Lipofectamine kit (Invitrogen, Carlsbad, Calif.) as previously described. Following a 96 hour incubation period, total RNA samples were collected to compare knockdown efficiency and viability was measured in parallel plated cells.

CHLA-136 cells [2] = test: Cisplatin IC50 in siRNA-transfected cells, Cell Titer Glo 2.0 viability (Example 5)
Procedure: (§1) GPC2 mRNA was reduced using the indicated siRNAs and changes in cell viability were assessed in multiple cancer cell lines, in combination with Cisplatin treatment. Cells were transfected with either a scrambled control siRNA or with GPC2 siRNA sequences 3 or 5 from Table 7 using the RNAiMAX Lipofectamine kit (Invitrogen, Carlsbad, Calif.), as previously described, in either in 96 well (for viability assays) or 6 well format (for total RNA). Cisplatin was added at increasing concentrations (0 to 30 uM) to transfected cells at 24 hours post transfection. Following a 72 hour incubation period, cell viability was measured using Cell Titer Glo 2.0. Total RNA samples were also isolated to measure knockdown efficiency.

CHLA-172 cells [3] = test: as above
Procedure: as §1

CHLA-90 cells [4] = test: as above
Procedure: as §1

COV362 cells = test: as above
Procedure: as §1

GIST-T1 cells = test: as above
Procedure: as §1

KELLY cells [5] = test: as above
Procedure: as §1

RH30 cells = test: as above
Procedure: as §1

RH41 cells = test: as above
Procedure: as §1

SK-N-BE2 cells [6] = test: as above
Procedure: as §1

TOV112D cells = test: as above
Procedure: as §1

CHLA-136 cells [7] = test: Carboplatin IC50 in siRNA-transfected cells, Cell Titer Glo 2.0 viability (Example 6)
CHLA-172 cells [8] = test: as above
KELLY cells [9] = test: as above
SKNAS cells [10] = test: as above
CHLA-90 cells [11] = test: Topotecan IC50 in siRNA-transfected cells, Cell Titer Glo 2.0 viability (Example 10)
Procedure: (§2) GPC2 mRNA expression was reduced and changes in cell viability were assessed in multiple neuroblastoma cell lines. Cells were transfected with either a control siRNA or with GPC2 siRNA sequences 5 or 7 from Table 7 using the RNAiMAX Lipofectamine kit (Invitrogen, Carlsbad, Calif.) as previously described in 96 wells for viability assays. Topotecan was added at increasing concentrations (0-5 uM) to transfected cells at 24 hours post transfection. Following a 72 hour incubation period, viability measurements were made using Cell Titer Glo 2.0.

CHP212 cells = test: as above
Procedure: as §2

KELLY cells [12] = test: as above
Procedure: as §2

SH-SY5Y cells = test: as above
Procedure: as §2

SK-N-BE2 cells [13] = test: as above
Procedure: as §2

SKNAS cells [14] = test: as above
Procedure: as §2

[15] = system: spheroids from CHP212, SKNAS, SK-N-BE2 and CHLA90 neuroblastoma cells; test: Viability of established spheroid cultures after siRNA transfection (Example 11); conditions: 96 hour following transfection; where GPC2 knockdown was observed (FIG. 7B)
Procedure: The effect of siRNA mediated GPC2 mRNA knockdown was also assessed on established spheroid cultures. Spheroids were established by seeding cells in low attachment plates and culturing for 96 hours. Spheroids were transfected with either a scrambled control siRNA or with GPC2 siRNA of sequence 5 or 7 from Table 7, using the RNAiMAX Lipofectamine kit (Invitrogen, Carlsbad, Calif.) as previously described. At the 96 hour time point following transfection, the degree of GPC2 mRNA knockdown (FIG. 7A) as well as spheroid viability (FIG. 7B) was measured.

GPC2 siRNA 5: siRNA duplex: sense CUCAGUAGCCCAGCACUCU[dT][dT] (SEQ ID NO: 211), anti-sense AGAGUGCUGGGCUACUGAG[dT][dT] (SEQ ID NO: 212) (sense CUCAGUAGCCCAGCACUCUTT; antisense AGAGUGCUGGGCUACUGAGTT; sugars from the 5' end r19 d2, backbone not given here; listed as Homo sapiens)
Viability decrease among sequences 3, 5, 12-15 [1]: greater viability decrease | Data Summary: effect of knockdown on sensitivity to cisplatin (CHLA-136 cells [2]; CHLA-136): increases sensitivity to | IC50 (CHLA-136 cells [2]; CHLA-136 cells transfected with the labelled siRNA, cisplatin added 24 hours post transfection, 72 hour incubation): 6000 nM | Data Summary: effect of knockdown on sensitivity to cisplatin (CHLA-172 cells [3]; CHLA-172): does not increase | IC50 (CHLA-172 cells [3]; CHLA-172 cells transfected with the labelled siRNA, cisplatin added 24 hours post transfection, 72 hour incubation): 17000 nM | Data Summary: effect of knockdown on sensitivity to cisplatin (CHLA-90 cells [4]; CHLA-90): increases sensitivity to | IC50 (CHLA-90 cells [4]; CHLA-90 cells transfected with the labelled siRNA, cisplatin added 24 hours post transfection, 72 hour incubation): 15000 nM | Data Summary: effect of knockdown on sensitivity to cisplatin (COV362 cells; COV362): does not increase | IC50 (COV362 cells; COV362 cells transfected with the labelled siRNA, cisplatin added 24 hours post transfection, 72 hour incubation): 18000 nM | Data Summary: effect of knockdown on sensitivity to cisplatin (GIST-T1 cells; GIST-T1): increases sensitivity to | IC50 (GIST-T1 cells; GIST-T1 cells transfected with the labelled siRNA, cisplatin added 24 hours post transfection, 72 hour incubation): 1000 nM | Data Summary: effect of knockdown on sensitivity to cisplatin (KELLY cells [5]; KELLY): increases sensitivity to | IC50 (KELLY cells [5]; KELLY cells transfected with the labelled siRNA, cisplatin added 24 hours post transfection, 72 hour incubation): 2500 nM | Data Summary: effect of knockdown on sensitivity to cisplatin (RH30 cells; RH30): does not increase | IC50 (RH30 cells; RH30 cells transfected with the labelled siRNA, cisplatin added 24 hours post transfection, 72 hour incubation): 2500 nM | Data Summary: effect of knockdown on sensitivity to cisplatin (RH41 cells; RH41): increases sensitivity to | IC50 (RH41 cells; RH41 cells transfected with the labelled siRNA, cisplatin added 24 hours post transfection, 72 hour incubation): 1000 nM | Data Summary: effect of knockdown on sensitivity to cisplatin (SK-N-BE2 cells [6]; SK-N-BE2): increases sensitivity to | IC50 (SK-N-BE2 cells [6]; SK-N-BE2 cells transfected with the labelled siRNA, cisplatin added 24 hours post transfection, 72 hour incubation): 3000 nM | Data Summary: effect of knockdown on sensitivity to cisplatin (TOV112D cells; TOV112D): does not increase | IC50 (TOV112D cells; TOV112D cells transfected with the labelled siRNA, cisplatin added 24 hours post transfection, 72 hour incubation): 7000 nM | Data Summary: effect of knockdown on sensitivity to carboplatin (CHLA-136 cells [7]; CHLA-136): not increase sensitivity | IC50 (CHLA-136 cells [7]; CHLA-136 cells transfected with the labelled siRNA, carboplatin added 24 hours post transfection, 72 hour incubation): 36000 nM | Data Summary: effect of knockdown on sensitivity to carboplatin (CHLA-172 cells [8]; CHLA-172): increases sensitivity to | IC50 (CHLA-172 cells [8]; CHLA-172 cells transfected with the labelled siRNA, carboplatin added 24 hours post transfection, 72 hour incubation): 100000 nM | Data Summary: effect of knockdown on sensitivity to carboplatin (KELLY cells [9]; KELLY): KD with sequence 5 increases | IC50 (KELLY cells [9]; KELLY cells transfected with the labelled siRNA, carboplatin added 24 hours post transfection, 72 hour incubation): 9000 nM | Data Summary: effect of knockdown on sensitivity to carboplatin (SKNAS cells [10]; SKNAS): increases sensitivity to | IC50 (SKNAS cells [10]; SKNAS cells transfected with the labelled siRNA, carboplatin added 24 hours post transfection, 72 hour incubation): 15300 nM | Data Summary: effect of knockdown on sensitivity to topotecan (CHLA-90 cells [11]; CHLA-90): not increase sensitivity to topotecan | IC50 (CHLA-90 cells [11]; CHLA-90 cells transfected with the labelled siRNA, topotecan added 24 hours post transfection, 72 hour incubation): 110 nM | Data Summary: effect of knockdown on sensitivity to topotecan (CHP212 cells; CHP212): not increase sensitivity to topotecan | IC50 (CHP212 cells; CHP212 cells transfected with the labelled siRNA, topotecan added 24 hours post transfection, 72 hour incubation): 10 nM | Data Summary: effect of knockdown on sensitivity to topotecan (KELLY cells [12]; KELLY): not increase sensitivity to topotecan | IC50 (KELLY cells [12]; KELLY cells transfected with the labelled siRNA, topotecan added 24 hours post transfection, 72 hour incubation): 60 nM | Data Summary: effect of knockdown on sensitivity to topotecan (SH-SY5Y cells; SH-SY5Y): not increase sensitivity to topotecan | IC50 (SH-SY5Y cells; SH-SY5Y cells transfected with the labelled siRNA, topotecan added 24 hours post transfection, 72 hour incubation): 40 nM | Data Summary: effect of knockdown on sensitivity to topotecan (SK-N-BE2 cells [13]; SK-N-BE2): not increase sensitivity to topotecan | IC50 (SK-N-BE2 cells [13]; SK-N-BE2 cells transfected with the labelled siRNA, topotecan added 24 hours post transfection, 72 hour incubation): 10 nM | Data Summary: effect of knockdown on sensitivity to topotecan (SKNAS cells [14]; SKNAS): increases sensitivity to topotecan | IC50 (SKNAS cells [14]; SKNAS cells transfected with the labelled siRNA, topotecan added 24 hours post transfection, 72 hour incubation): 20 nM | Viability of established spheroids [15]: a decrease in spheroid viability was also seen
